Measurements from US9399626B2, “2-thiopyrimidinones” (Pfizer Inc., priority 2011, dated 2016).
Structures can show the parent of a compound that is named as a salt.

What follows are compounds tested against T1, MPO (purified from human polynuclear leukocytes) (Homo sapiens, UniProt P05164) (assay: MPO Amplex Red Activity Assay). Conditions: Table 1, 2 μM H2O2, pH 7.4.
T1 construct: purified from human polynuclear leukocytes; purchased Calbiochem/EMD Biosciences; host or cells: human polynuclear leukocytes (natural source)
Assay type: biochemical
How it was run: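 Potency is given as kinact/KI: kobs values from 600 s progress curves, minus the uninhibited rate, are fit against inhibitor concentration. Reactions use 2 μM H2O2, 30 μM Amplex Red, pH 7.4 phosphate buffer with NaCl, DTPA and 2% DMSO, started with […] human MPO. Readout is resorufin fluorescence, catalase background subtracted.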

T1 sequence (P05164 279-745 limits assumed): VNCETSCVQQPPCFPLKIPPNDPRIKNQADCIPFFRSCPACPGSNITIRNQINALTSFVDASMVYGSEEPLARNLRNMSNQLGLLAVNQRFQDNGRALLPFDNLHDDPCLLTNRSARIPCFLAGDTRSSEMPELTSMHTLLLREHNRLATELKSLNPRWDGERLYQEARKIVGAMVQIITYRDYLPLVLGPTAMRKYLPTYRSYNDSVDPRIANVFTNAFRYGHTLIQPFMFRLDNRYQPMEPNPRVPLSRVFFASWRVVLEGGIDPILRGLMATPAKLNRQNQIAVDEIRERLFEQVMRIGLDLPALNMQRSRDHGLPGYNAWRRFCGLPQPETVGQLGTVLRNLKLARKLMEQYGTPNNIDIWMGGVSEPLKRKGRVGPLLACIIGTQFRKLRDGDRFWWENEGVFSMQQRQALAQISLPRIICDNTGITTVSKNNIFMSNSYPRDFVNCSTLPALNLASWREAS
T1 sequence (P05164 165-273 limits assumed): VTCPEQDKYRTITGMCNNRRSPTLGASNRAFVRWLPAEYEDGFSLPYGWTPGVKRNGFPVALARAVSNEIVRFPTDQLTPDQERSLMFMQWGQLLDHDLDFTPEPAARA

| Structure (SMILES) | MPO kinact/Ki |
| --- | --- |
| COc1ncc(Cl)cc1-c1cc(=O)[nH]c(=S)n1CCO [Example 65, 6-(5-chloro-2-methoxypyridin-3-yl)-1-(2-hydroxyethyl)-2-thioxo-2,3-dihydropyrimidin-4(1H)-one] | 7940 1/s per M |
| COc1ccccc1-c1cc(=O)[nH]c(=S)n1CCCN [Example 18, 1-(3-aminopropyl)-6-(2-methoxyphenyl)-2-thioxo-2,3-dihydropyrimidin-4(1H)-one hydrochloride] | 8280 1/s per M |
| COc1ccc(-c2cc(=O)[nH]c(=S)n2CCO)cc1 [Example 12, 1-(2-hydroxyethyl)-6-(4-methoxyphenyl)-2-thioxo-2,3-dihydropyrimidin-4(1H)-one] | 5010 1/s per M |

Other lines, results leading:

| MPO kinact/Ki | Structure (SMILES) |
| --- | --- |
| 13200 1/s per M | COCCn1c(-c2cc(C(C)C)ccc2OC)cc(=O)[nH]c1=S [Example 337, 6-(5-isopropyl-2-methoxyphenyl)-1-(2-methoxyethyl)-2-thioxo-2,3-dihydropyrimidin-4(1H)-one] |
| 10700 1/s per M | COc1ccc(-c2cc(=O)[nH]c(=S)n2C[C@H]2CCCO2)c(OC)c1 [Example 214, 6-(2,4-dimethoxyphenyl)-1-[(2R)-tetrahydrofuran-2-ylmethyl]-2-thioxo-2,3-dihydropyrimidin-4(1H)-one] |
| 1570 1/s per M | COCCn1c(-c2ccncc2OC)cc(=O)[nH]c1=S [Example 296, 1-(2-methoxyethyl)-6-(3-methoxypyridin-4-yl)-2-thioxo-2,3-dihydropyrimidin-4(1H)-one] |
| 3450 1/s per M | COc1ccc(-c2cc(=O)[nH]c(=S)n2C[C@H](O)CO)c(OC)c1 [Example 203, 1-[(2S)-2,3-dihydroxypropyl]-6-(2,4-dimethoxyphenyl)-2-thioxo-2,3-dihydropyrimidin-4(1H)-one] |
| 3180 1/s per M | COc1ccc(F)cc1-c1cc(=O)[nH]c(=S)n1CCN.Cl [Example 26, 1-(2-aminoethyl)-6-(5-fluoro-2-methoxyphenyl)-2-thioxo-2,3-dihydropyrimidin-4(1H)-one hydrochloride] |
| 1970 1/s per M | COc1ccc(-c2cc(=O)[nH]c(=S)n2CCC(C)(C)N)c(OC)c1 [Example 219, 1-(3-amino-3-methylbutyl)-6-(2,4-dimethoxyphenyl)-2-thioxo-2,3-dihydropyrimidin-4(1H)-one hydrochloride] |
| 34600 1/s per M | COc1ccc(C)cc1-c1cc(=O)[nH]c(=S)n1CCCN [Example 43, 1-(3-aminopropyl)-6-(2-methoxy-5-methylphenyl)-2-thioxo-2,3-dihydropyrimidin-4(1H)-one hydrochloride] |

Same assay, conditions: Table 1A, 2 μM H2O2, pH 7.4

| Structure (SMILES) | MPO kinact/Ki |
| --- | --- |
| COc1ccc(-c2cc(=O)[nH]c(=S)n2CC(=O)NC2CNC2)c(OC)c1 [Example 438, N-(azetidin-3-yl)-2-[6-(2,4-dimethoxyphenyl)-4-oxo-2-thioxo-3,4-dihydropyrimidin-1(2H)-yl]acetamide] | 7550 1/s per M |
| O=c1cc(-c2cc(Cl)ccc2OCCO)n(CCO)c(=S)[nH]1 [Example 425, 6-[5-chloro-2-(2-hydroxyethoxy)phenyl]-1-(2-hydroxyethyl)-2-thioxo-2,3-dihydropyrimidin-4(1H)-one] | 13400 1/s per M |
| COc1ccc(OCCO)cc1-c1cc(=O)[nH]c(=S)n1CC(N)=O [Example 422, 2-{6-[5-(2-hydroxyethoxy)-2-methoxyphenyl]-4-oxo-2-thioxo-3,4-dihydropyrimidin-1(2H)-yl}acetamide] | 4460 1/s per M |
| COc1ccc(Cl)cc1-c1cc(=O)[nH]c(=S)n1CCCNC(=N)N1CCCC1 [Example 450, N-{3-[6-(5-chloro-2-methoxyphenyl)-4-oxo-2-thioxo-3,4-dihydropyrimidin-1(2H)-yl]propyl}pyrrolidine-1-carboximidamide] | 7730 1/s per M |
